Values of other authors as cited in patent US8183365B2, “Synthetic method for ceratamine A and B and analogs thereof” (The Ohio State University, priority 2009, dated 2012).

Details: cell-based assay; natural products isolated from sponge Pseudoceratina sp.

## CNc1nc2ccn(C)c(=O)c(Cc3cc(Br)c(OC)c(Br)c3)c-2n1 [ceratamine A, Ceratamine A]
  antimitotic activity: possess antimitotic activity

## Ceratamine B
  antimitotic activity: possess antimitotic activity
